In ChEMBL document CHEMBL2417377, “Hit-to-lead optimization and kinase selectivity of imidazo[1,2-a]quinoxalin-4-amine derived JNK1 inhibitors” (Bioorg Med Chem Lett, 2013):

Assays:
Details in all cases: PC-3
[1] = biological target: T1, Serine/threonine-protein kinase STK11 (Homo sapiens) (UniProt Q15831); assay: Inhibition of LKB1 in human PC3 cell lysates at 30 uM using desthiobiotin-tagged ATP probe AX9989 followed by trypsinization by LC/MS analysis
T1 sequence (whole entry): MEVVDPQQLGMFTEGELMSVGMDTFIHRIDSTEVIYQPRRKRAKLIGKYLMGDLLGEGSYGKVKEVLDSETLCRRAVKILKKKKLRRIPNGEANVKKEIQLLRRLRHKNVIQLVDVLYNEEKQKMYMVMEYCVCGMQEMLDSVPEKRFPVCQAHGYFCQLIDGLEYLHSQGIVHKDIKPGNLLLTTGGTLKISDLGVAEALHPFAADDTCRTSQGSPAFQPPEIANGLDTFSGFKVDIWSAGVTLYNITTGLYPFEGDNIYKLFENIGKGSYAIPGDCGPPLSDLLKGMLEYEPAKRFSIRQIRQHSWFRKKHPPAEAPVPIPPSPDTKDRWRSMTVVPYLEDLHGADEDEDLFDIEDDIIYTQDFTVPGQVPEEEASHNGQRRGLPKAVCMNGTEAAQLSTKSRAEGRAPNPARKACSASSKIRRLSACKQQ

[2] = biological target: T2, Serine/threonine-protein kinase TAO2 (Homo sapiens) (UniProt Q9UL54); assay: Inhibition of TAO2 in human PC3 cell lysates at 30 uM using desthiobiotin-tagged ATP probe AX9989 followed by trypsinization by LC/MS analysis
T2 sequence (whole entry): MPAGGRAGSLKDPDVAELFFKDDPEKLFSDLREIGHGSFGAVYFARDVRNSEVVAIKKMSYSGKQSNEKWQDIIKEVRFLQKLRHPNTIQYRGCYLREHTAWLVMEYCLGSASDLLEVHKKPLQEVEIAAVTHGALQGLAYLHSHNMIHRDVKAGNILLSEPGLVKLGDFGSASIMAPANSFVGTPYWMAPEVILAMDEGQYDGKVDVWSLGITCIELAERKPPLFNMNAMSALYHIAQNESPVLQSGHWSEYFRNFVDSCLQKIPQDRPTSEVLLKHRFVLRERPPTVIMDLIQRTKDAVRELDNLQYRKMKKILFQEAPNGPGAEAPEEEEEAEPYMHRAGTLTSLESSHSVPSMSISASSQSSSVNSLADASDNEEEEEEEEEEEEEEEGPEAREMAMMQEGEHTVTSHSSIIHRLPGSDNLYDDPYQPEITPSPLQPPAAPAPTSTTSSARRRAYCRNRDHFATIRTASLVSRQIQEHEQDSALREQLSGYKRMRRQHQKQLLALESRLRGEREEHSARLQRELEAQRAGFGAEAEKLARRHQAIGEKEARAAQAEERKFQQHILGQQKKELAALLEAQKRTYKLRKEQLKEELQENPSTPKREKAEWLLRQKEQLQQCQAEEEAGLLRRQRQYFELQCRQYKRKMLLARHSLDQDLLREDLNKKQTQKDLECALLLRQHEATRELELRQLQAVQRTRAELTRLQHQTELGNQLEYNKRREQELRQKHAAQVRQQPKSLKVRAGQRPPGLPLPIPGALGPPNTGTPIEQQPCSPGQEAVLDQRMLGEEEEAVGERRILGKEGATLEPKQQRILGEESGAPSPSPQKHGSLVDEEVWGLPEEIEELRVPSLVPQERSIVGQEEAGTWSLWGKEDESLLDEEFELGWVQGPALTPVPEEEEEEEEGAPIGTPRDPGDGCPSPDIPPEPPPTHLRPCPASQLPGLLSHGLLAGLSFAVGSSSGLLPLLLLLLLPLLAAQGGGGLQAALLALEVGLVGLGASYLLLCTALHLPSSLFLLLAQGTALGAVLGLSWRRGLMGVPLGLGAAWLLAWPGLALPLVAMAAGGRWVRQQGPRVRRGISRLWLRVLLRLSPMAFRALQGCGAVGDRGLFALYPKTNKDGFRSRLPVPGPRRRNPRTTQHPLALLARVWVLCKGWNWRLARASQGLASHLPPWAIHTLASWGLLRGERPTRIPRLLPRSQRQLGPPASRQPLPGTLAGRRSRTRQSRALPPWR

[3] = biological target: Cyclin-dependent kinase 9 (Homo sapiens) (UniProt P50750); assay: Inhibition of CDK9 in human PC3 cell lysates at 30 uM using desthiobiotin-tagged ATP probe AX9989 followed by trypsinization by LC/MS analysis
Chain of Cyclin-dependent kinase 9 (Homo sapiens) (P50750 whole entry): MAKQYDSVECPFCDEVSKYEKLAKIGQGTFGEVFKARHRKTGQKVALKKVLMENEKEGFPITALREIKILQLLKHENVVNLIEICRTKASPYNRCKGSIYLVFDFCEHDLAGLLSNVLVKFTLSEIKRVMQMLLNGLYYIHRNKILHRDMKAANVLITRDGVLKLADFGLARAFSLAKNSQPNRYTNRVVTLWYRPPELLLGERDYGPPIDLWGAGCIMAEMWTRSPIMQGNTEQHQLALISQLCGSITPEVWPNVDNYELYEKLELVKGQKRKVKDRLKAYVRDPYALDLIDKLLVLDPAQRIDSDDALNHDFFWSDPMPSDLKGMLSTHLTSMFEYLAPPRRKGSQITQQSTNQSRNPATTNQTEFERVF

[4] = biological target: c-Jun N-terminal kinase, JNK (Homo sapiens) (UniProt P45983+P53779+P45984); assay: Inhibition of JNK1/JNK2/JNK3 in human PC3 cell lysates at 30 uM using desthiobiotin-tagged ATP probe AX9989 followed by trypsinization by LC/MS analysis; assay type: protein assay

c1ccc(CNc2nc3ccccc3n3ccnc23)cc1
inhibition [1]: < 35% | inhibition [2]: < 35% | inhibition [3]: < 35% | inhibition [4]: 46.2%

c1ccc(CCNc2nc3ccccc3n3ccnc23)cc1
inhibition [1]: < 35% | inhibition [2]: < 35% | inhibition [3]: < 35% | inhibition [4]: 41.6%

c1ccc2c(c1)nc(NC1CCCCC1)c1nccn12
inhibition [1]: < 35% | inhibition [2]: < 35% | inhibition [3]: 50.7% | inhibition [4]: 80.4%

O[C@H]1CC[C@H](Nc2nc3ccccc3n3ccnc23)CC1
inhibition [1]: 45.6% | inhibition [2]: 37% | inhibition [3]: 90.7% | inhibition [4]: 97.5%
